Laboratory results: patent US12286632B2, “Rationally-designed synthetic peptide shuttle agents for delivering polypeptide cargos from an extracellular space to the cytosol and/or nucleus of a target eukaryotic cell, uses thereof, methods and kits relating to same” (Feldan Bio Inc., priority 2016, dated 2025)
Read-outs that look alike come from different tables or passages of the source. Ends that are not written are not given here.

Key:
B2M genomic DNA sequence = assay: T7E1 DNA cleavage assay / % INDELs after CRISPR/Cas9-NLS or CRISPR/Cpf1-NLS delivery (HeLa, THP-1, NK, T cells); format: cell-based, Human; conditions: CRISPR/Cpf1 1.33 μM, crRNA 2 μM; THP-1 and NK cells; different concentrations and exposure times
Text: The T7 endonuclease I (T7E1) can be used to detect on-target CRISPR/Cas genome editing events in cultured cells. As an overview, genomic DNA from target cells is amplified by PCR. The PCR products are then denatured and reannealed to allow heteroduplex formation between wild-type DNA and CRISPR/Cas-mutated DNA. T7E1, which recognizes and cleaves mismatched DNA, is used to digest the heteroduplexes. The resulting cleaved and full-length PCR products are visualized by gel electrophoresis.
The T7E1 assay was performed with the Edit-R™ Synthetic crRNA Positive Controls (Dharmacon #U-007000-05) and the T7 Endonuclease I (NEB, Cat #M0302S). After the delivery of the CRISPR/Cas complex, cells were lysed in 100 μL of Phusion™ High-Fidelity DNA polymerase (NEB #M0530S) laboratory with additives. The cells were incubated for 15-30 minutes at 56° C., followed by deactivation for 5 minutes at 96° C. The plate was briefly centrifuged to collect the liquid at bottom of the wells. 50-μL PCR samples were set up for each sample to be analyzed. The PCR samples were heated to 95° C. for 10 minutes and then slowly (>15 minutes) cooled to room temperature. PCR product (-5 μL) was then separated on an agarose gel (2%) to confirm amplification. 15 μL of each reaction was incubated with T7E1 nuclease for 25 minutes at 37° C. Immediately, the entire reaction volume was run with the appropriate gel loading buffer on an agarose gel (2%).
Cas9-NLS recombinant protein was prepared as described in Example 13.1. Cpf1-NLS recombinant protein was prepared as described in Example G.2. A mix composed of a Cas9-NLS recombinant protein with its respective crRNAltracrRNA, or a Cpf1-NLS recombinant protein with its respective single guide crRNA(s) (see below) targeting a nucleotide sequence of the B2M gene, was co-incubated with different concentrations of the peptides FSD10, FSD18, FSD19, FSD21, FSD22, or FSD23 and incubated with HeLa, THP-1 or NK cells for 90 sec in PBS, or for 1 h in medium without serum, or for 48 h in medium with serum, using the transduction protocols as generally described in Example 3.1a. Cells were then washed with PBS and harvested to proceed with the T7E1 protocol assay as described in Example 13.4.
FIGS. 52A-52D show the results of the cleavage of the targeted genomic B2M DNA sequence after the delivery of CRISPR/Cpf1 (1.33 μM) with crRNA−1 or crRNA−2 (2 μM) in the absence (“-ctrl”) or in the presence of the peptides FSD10, FSD18, FSD19, FSD21 or FSD23 used at different concentrations, exposure times, and in different types of cells: THP-1 (FIG. 52A), and NK (FIGS. 52B, 52C, 52D), after separation by agarose gel electrophoresis. […] Gel lanes were loaded in duplicate. Thin dashed arrows indicate the bands corresponding to the target gene, and thick solid arrows indicate the bands corresponding to the cleavage products of this target gene, which indicate the successful transduction of fully functional CRISPR genome editing complexes. We used a Bio-Rad ImageLab™ software (Version 5.2.1, Bio-Rad, http://www.bio-rad.com/en-ca/product/image-lab-software?tab=Download) to quantify the relative signal intensities of each of the different bands directly on the gels. The sum of all the bands in a given lane corresponds to 100% of the signal, and the numerical value in italics at the bottom of each lane is the sum of the relative signals (%) of only the two cleavage product bands (thick solid arrows). No cleavage product bands were found in the negative controls (“-ctrl”, i.e., to cells that were exposed to CRISPR system in the absence of FSD peptide).
Cas9-NLS recombinant protein was prepared as described in Example 13.1. Cpf1-NLS recombinant protein was prepared as described in Example G.2. […]

THP-1 cells [1] = assay: Cleaved PARP ELISA assay after transduction of anti-Active Caspase 3 or anti-TNF antibody (± actinomycin D); format: cell-based, human; conditions: FSD23 7.5 μM, 5 min
Experimental: (§1) A monoclonal (mAb) and a polyclonal (pAb) anti-Active Caspase 3 antibodies […] were independently co-incubated with THP-1 and Jurkat cells for 5 min in the presence of FSD23 at 7.5 μM. The anti-apoptotic effect of each antibody was assessed via the level of Caspase 3-activated apoptosis with an ELISA cleaved PARP assay and quantified by spectrometry as described below.
(§2) The day of the experiment, cells in exponential growth phase were harvested, centrifugated (400g for 3 min) and resuspended in serum-free RPMI in a 96-well plate (500,000 cells in 150 μL per well). Cells were centrifugated and incubated for 5 min with a mix composed by the peptide to be tested (7.5 μM) and 2 μg of the antibody to be transduced. Cells were centrifuged and resuspended in RPMI with serum in a 24-well plate for 1 h at 37° C. Actinomycin D (2 μg/mL), a cytotoxic inducer of apoptosis, was incubated with the cells for 4 h. Cells were washed with cold PBS and tested using the PARP (Cleaved) [214/215]Human ELISA Kit (ThermoFisher) according to the manufacturer's instructions followed by spectroscopy analysis. […]

Jurkat cells = assay: as above; format: cell-based, Human; conditions: FSD23 7.5 μM, 5 min
Experimental: as §1, §2

NK-92 cells = assay: NKG2A gene inactivation by delivered CRISPR/Cpf1-NLS: PE anti-NKG2A immunolabelling, FACS; format: cell-based, Human; conditions: FSD23 6 μM; Cpf1-NLS 1.5 μM; 90 sec; 48 h
Experimental: Genome editing was performed in NK-92 cells to evaluate whether inactivation of the endogenous NKG2A gene could increase the cytotoxicity of the NK-92 cells. Briefly, one million NK-92 cells were incubated with Cpf1-NLS (1.5 μM) gRNA complex targeting the NKG2A gene and with FSD23 (6 μM) for 90 sec. After transduction, cells were incubated in complete medium with IL-2 (20 ng/mL) for 48 h at 37° C. NK-92 cells were then immunolabelled with a phycoerythrin (PE)-labelled anti-NKG2A antibody (Miltenyi Biotec #CD159a) following the manufacturer recommendations. NK-92 cells were then analyzed with FACS and scored as a function of their anti-NKG2A detection (PE fluorescence) level and the results are shown in FIG. 57A. As controls, unlabelled wild-type NK-92 cells (“unlabelled WT cells”) had no antibody signal, and labelled wild-type NK-92 cells (“labelled WT cells”) had full immunolabelling signal.

in vitro [2] = conditions: human, HeLa cells; for viability: Cell viability (%) (±St Dev.; n = 3)
in vitro [3] = conditions: human, HeLa cells
HeLa cells [4] = assay: Plasmid DNA (pEGFP-C1) transfection by peptides (% cells with GFP signal, cell viability); conditions: DNA transfection in HeLa cells using peptides; pEGFP-C1 plasmid
HeLa cells [5] = assay: GFP-NLS protein transduction assay (flow cytometry: Pos cells %, viability %, relative fluorescence intensity; microscopy); conditions: for Mean % cells with GFP signal (±St. Dev.; n = 3): Table B2, HeLa cells, GFP-NLS cargo; for FIG. 13B Cell viability (%) (±St Dev.; n = 3): Table 5.1; for FIG. 13B Cell viability (%) (±St Dev.; n = 3) / FIG. 21B Cell viability (%) (±St. Dev.; n = 3): GFP-NLS 5 μM, HeLa, 1 hour; for FIG. 21B Cell viability (%) (±St. Dev.; n = 3): Table 8.1
HeLa cells [6] = assay: Transduction of anti-NUP98 antibody, immuno-labelling and fluorescence microscopy; format: cell-based, Human; conditions: FSD19 7.5 μM; 4 hours
Experimental: Anti-NUP98 antibody […] was co-incubated with 7.5 μM of FSD19 and exposed to HeLa cells for 4 hours. Cells are washed, fixed with paraformaldehyde 4%, permeabilized with 0.1% Triton™ and labeled with a fluorescently labeled (Alexa™ Fluor 488) goat anti-rat antibody. Antibody bound to the perinuclear membrane and cell nuclei were visualized by fluorescence microscopy at 20× (upper panels) and 40× (lower panels).

in vitro [7] = conditions: human, THP-1 cells
Experimental: (§3) One day before the transduction assay was performed, cells in exponential growth phase were harvested and plated in a 96-well plate (20,000 cells per well). The cells were incubated overnight in appropriate growth media containing FBS (see Example 1). The next day, in separate sterile 1.5 mL tubes, cargo protein at the indicated concentration was pre-mixed (pre-incubated) for 1 or 10 min (depending on the protocol) at 37° C. with the peptide(s) to be tested shuttle agents (0.5 to 5 μM) in 50 μL of fresh medium without serum (unless otherwise specified). The media in wells was removed and the cells were washed three times with freshly prepared phosphate buffered saline (PBS) previously warmed at 37° C. The cells were incubated with the cargo protein/shuttle agent mixture at 37° C. for the indicated time (e.g., 1, 5 or 60 min). After the incubation, the cells were quickly washed three times with freshly prepared PBS and/or heparin (0.5 mg/mL) previously warmed at 37° C. The washes with heparin were required for human THP-1 blood cells to avoid undesired cell membrane-bound protein background in subsequent analyses (microscopy and flow cytometry). The cells were finally incubated in 50 μL of fresh medium with serum at 37° C. before analysis.
(§4) One day before the transduction assay was performed, suspension cells in exponential growth phase were harvested and plated in a 96-well plate (20,000 cells per well). The cells were incubated overnight in appropriate growth media containing serum (see Example 1). The next day, in separate sterile 1.5-mL tubes, peptides were diluted in sterile distilled water at room temperature (if the cargo is or comprised a nucleic acid, nuclease-free water was used). Cargo protein(s) were then added to the peptides and, if necessary, sterile PBS or cell culture medium (serum-free) was added to obtain the desired concentrations of shuttle agent and cargo in a sufficient final volume to resuspend the cells (e.g., 10 to 100 μL per well in a 96-well plate). The shuttle agent/peptide was then immediately used for experiments. At least three controls were included for each experiment, including: (1) peptide alone (e.g., at highest concentration tested); (2) cargo alone; and (3) without any cargo or shuttle agent. The cells were centrifuged for 2 minutes at 400g, the medium was then removed and the cells were resuspended in PBS previously warmed at 37° C. The cells were centrifuged again 2 minutes at 400g, the PBS removed, and the cells were resuspended with the cargo protein/peptide mixture at 37° C. for the desired length of time. After that, 200 μL of complete medium was added directly on the cells. Cells were centrifuged for 2 minutes at 400g and the medium was removed. The pellet was resuspended and washed in 200 μL of PBS previously warmed at 37° C. After another centrifugation, the PBS was removed and the cells were resuspended in 50 μL of trypsin-EDTA solution for 2 min. 200 of complete medium was directly added and cells were centrifuged for 2 minutes at 400g. The medium was removed and the cells were resuspended in 200 μL of complete medium.
(§5) The cells incubated in 50 μL of fresh medium were directly observed by microscopy (Bright-field and fluorescence) at different power fields (4× to 40×). The cells were observed using a CoolSNAP-PRO™ camera (Series A02D874021) and images were acquired using the Image-Proplus™ software.
(§6) The fluorescence of GFP was quantified using flow cytometry (Accuri C6, Becton, Dickinson and Company (BD)).

THP-1 cells [8] = assay: GFP-NLS protein transduction assay (flow cytometry: Pos cells %, viability %, relative fluorescence intensity; microscopy); conditions: for Mean % cells with GFP signal (±St. Dev.; n = 3): THP-1 cells, GFP-NLS 10 μM
Experimental: as §3, §4, §5, §6

primary myoblasts = assay: Calcein endosomal escape assay, quantification by flow cytometry (mean counts, Mean Factor); format: cell-based, Human; conditions: myoblast cells
Text: Calcein is a membrane-impermeable fluorescent molecule that is readily internalized by cells when administered to the extracellular medium. Its fluorescence is […] and calcein self-quenches at higher concentrations. Once internalized, calcein becomes sequestered at high concentrations in cell endosomes and can be visualized by fluorescence microscopy as a punctate pattern. Following endosomal leakage, calcein is released to the cell cytoplasm and this release can be visualized by fluorescence microscopy as a diffuse pattern.
The cells were allowed to attach by incubating overnight in appropriate growth media, as described in Example 1. The next day, the media in wells was removed and replaced with 50 μL of fresh media without serum containing 62.5 μg/mL (100 μM) of calcein, except for HEK293A (250 μg/mL, 400 μM). […]
Untreated calcein-loaded cells were used as a control to distinguish cells having a baseline of fluorescence due to endosomally-trapped calcein from cells having increased fluorescence due to release of calcein from endosomes. Fluorescence signal means (“mean counts”) were analyzed for endosomal escape quantification. In some cases, the “Mean Factor” was calculated, which corresponds to the fold-increase of the mean counts relative to control (untreated calcein-loaded cells). […] The cellular mortality was monitored with the percentage of cells in the total events scanned. […]

HeLa cells [9] = format: cell-based, Human; conditions: GFP (5 μM), 1 hour
Experimental: One day before the transduction assay was performed, cells in exponential growth phase were harvested and plated in a 96-well plate (20,000 cells per well). The cells were incubated overnight in appropriate growth media containing FBS (see Example 1). The next day, in separate sterile 1.5 mL tubes, cargo protein at the indicated concentration was pre-mixed (pre-incubated) for 1 or 10 min (depending on the protocol) at 37° C. with the peptide(s) to be tested shuttle agents (0.5 to 5 μM) in 50 μL of fresh medium without serum (unless otherwise specified). The media in wells was removed and the cells were washed three times with freshly prepared phosphate buffered saline (PBS) previously warmed at 37° C. The cells were incubated with the cargo protein/shuttle agent mixture at 37° C. for the indicated time (e.g., 1, 5 or 60 min). After the incubation, the cells were quickly washed three times with freshly prepared PBS and/or heparin (0.5 mg/mL) previously warmed at 37° C. […] The cells were finally incubated in 50 μL of fresh medium with serum at 37° C. before analysis.
The Olympus filter U-MF2™ (C54942-Exc495/Em510) was used to observe GFP and FITC-labeled antibody fluorescent signals. […] The Olympus filter U-MWU2™ (Exc330/Em385) was used to observe DAPI or Blue Hoechst fluorescent signals. The cells incubated in 50 μL of fresh medium were directly observed by microscopy (Bright-field and fluorescence) at different power fields (4× to 40×). The cells were observed using a CoolSNAP-PRO™ camera (Series A02D874021) and images were acquired using the Image-Proplus™ software.
The fluorescence of GFP was quantified using flow cytometry (Accuri C6, Becton, Dickinson and Company (BD)). Untreated cells were used to establish a baseline in order to quantify the increased fluorescence due to the internalization of the fluorescent protein in treated cells. The percentage of cells with a fluorescence signal above the maximum fluorescence of untreated cells, “mean %” or “Pos cells (%)”, is used to identify positive fluorescent cells. “Relative fluorescence intensity (FL1−A)” corresponds to the mean of all fluorescence intensities from each cell with a fluorescent signal after fluorescent protein delivery with the shuttle agent. Also, the events scanned by flow cytometry corresponding to cells (size and granularity) were analyzed. The cellular toxicity (% cell viability) was monitored comparing the percentage of cells in the total events scanned of treated cells comparatively to untreated cells.

HeLa cells [10] = assay: TAT-GFP protein transduction assay (flow cytometry, cell viability, fluorescence microscopy); format: cell-based, Human; conditions: TAT-GFP 5 μM, 1 hour
Experimental: Briefly, TAT-GFP recombinant protein (5 μM) was co-incubated with different concentrations of CM18-TAT-Cys (0, 0.5, 1, 3, or 5 μM) and then exposed to HeLa cells for 1 hour.

HeLa cells [11] = assay: FITC-labeled anti-tubulin antibody transduction assay (flow cytometry, cell viability, microscopy); conditions: FITC-labeled anti-tubulin antibody 0.5 μM, HeLa, 1 hour; shuttle 3.5 μM
Experimental: The delivery and microscopy protocols are described in Example 3.
HeLa cells were cultured and tested in the protein transduction assay described in Example 3.1. […] The cells were subjected to flow cytometry analysis as described in Example 3.3.

HHHHHHLLKLWSRLLKEWTQGRRLEAKRAEAHHHHHH [FSD23]
delivery of CRISPR/Cpf1 complex, cleavage of genomic B2M (in words) (B2M genomic DNA sequence): successful delivery of the CRISPR genome-editing complexes to the nucleus | transduction of functional anti-Active Caspase 3 antibodies (cleaved PARP, in words) (THP-1 cells [1]): successfully transduced functional anti-Active Caspase 3 antibodies | transduction of functional anti-Active Caspase 3 antibodies (cleaved PARP, in words) (Jurkat cells): successfully transduced functional anti-Active Caspase 3 antibodies | NKG2A receptor expression on the cell surface after genome editing (NK-92 cells): two cell populations (peaks) were observed | viability (in vitro [2]): 65.3 ± 5.44% | viability (in vitro [3]): 98.2 ± 1.03% | Mean % cells with GFP signal (±St. Dev.; n = 3) (HeLa cells [4]): 0.04 ± 0.00% | Mean % cells with GFP signal (±St. Dev.; n = 3) (HeLa cells [5]): 50.34 ± 4.29%

HHHHHHLLKLWSRLLKTWTQGRRLKAKSAQASTRQAHHHHHH [FSD19]
delivery of CRISPR/Cpf1 complex, cleavage of genomic B2M (in words) (B2M genomic DNA sequence): successful delivery of the CRISPR genome-editing complexes to the nucleus | functionality of transduced anti-NUP98 antibody (microscopy) (HeLa cells [6]): anti-NUP98 antibody retained its functionality inside the cell following its transduction | viability (in vitro [2]): 80.6 ± 5.36% | viability at 15 s, 5 µM (in vitro [7]): 60.5 ± 5.71% | viability at 0.5 min, 2 µM (in vitro [7]): 68.7 ± 4.29% | viability (in vitro [3]): 97.4 ± 2.07% | Mean % cells with GFP signal (±St. Dev.; n = 3) (HeLa cells [4]): 0.24 ± 0.00% | Mean % cells with GFP signal (±St. Dev.; n = 3) (HeLa cells [5]): 55.17 ± 4.62% | Mean % cells with GFP signal (±St. Dev.; n = 3) (THP-1 cells [8]; peptide 2 μM, incubation 0.5 min): 55.4 ± 4.63% | Mean % cells with GFP signal (±St. Dev.; n = 3) (THP-1 cells [8]; peptide 5 μM, incubation 0.25 min): 61.5 ± 6.07%

KWKLFKKIGAVLKVLTTGYGRKKRRQRRRC [CM18-TAT-Cys]
peptide concentrations associated with an increase in cell toxicity (primary myoblasts): above 10 μM | Cell viability (%) (HeLa cells [9]; shuttle 0.5 μM): 88.4 ± 6% | Cell viability (%) (HeLa cells [9]; shuttle 1 μM): 90 ± 6% | Cell viability (%) (HeLa cells [9]; shuttle 3 μM): 91 ± 5% | Cell viability (%) (HeLa cells [9]; shuttle 5 μM): 90 ± 7% | FIG. 11B Cell viability (%) (±St. Dev.; n = 3) (HeLa cells [10]; shuttle 0.5 μM): 84.36 ± 5% | FIG. 11B Cell viability (%) (±St. Dev.; n = 3) (HeLa cells [10]; shuttle 1 μM): 89.26 ± 5.26% | FIG. 11B Cell viability (%) (±St. Dev.; n = 3) (HeLa cells [10]; shuttle 3 μM): 93.18 ± 6.28% | FIG. 11B Cell viability (%) (±St. Dev.; n = 3) (HeLa cells [10]; shuttle 5 μM): 95.14 ± 5.28% | FIG. 19B Cell viability (%) (± St. Dev.; n = 3) (HeLa cells [11]): 95 ± 4.06% | viability at 1 h, 1 µM (in vitro [2]): 94 ± 4.28% | viability (in vitro [3]): 96.3 ± 1.86% | FIG. 13B Cell viability (%) (±St Dev.; n = 3) (HeLa cells [5]; shuttle 0.5 μM): 87.6 ± 4% | FIG. 13B Cell viability (%) (±St Dev.; n = 3) (HeLa cells [5]; shuttle 1 μM): 93 ± 8% | FIG. 13B Cell viability (%) (±St Dev.; n = 3) (HeLa cells [5]; shuttle 5 μM): 93 ± 4% | FIG. 21B Cell viability (%) (±St. Dev.; n = 3) (HeLa cells [5]; shuttle 3 μM): 89 ± 5.37% | FIG. 21B Cell viability (%) (±St. Dev.; n = 3) (HeLa cells [5]; shuttle 5 μM): 81 ± 6.34% | FIG. 17B Cell viability (%) (±St Dev.; n = 3) (THP-1 cells [8]; Table 5.5, GFP-NLS 5 μM, THP-1, 5 minutes, shuttle 1 μM): 85 ± 6%
